ChEMBL document CHEMBL1240386, “Pharmacokinetics of antituberculosis drugs in pulmonary tuberculosis patients with type 2 diabetes” (Antimicrob Agents Chemother, 2010)

Assays:
Type in all cases: ADME, organism-based
[1] = AUC (0 to 24 hrs) in tuberculosis patient at 30 mg/kg, po by HPLC analysis; parameters: time < 24 hr, dose 30 mg/kg, route oral; conditions: human, plasma
Homo sapiens [2] = assay: Ratio of AUC (0 to 24 hrs) for diabetic tuberculosis patient to AUC (0 to 24 hrs) for tuberculosis patient at 30 mg/kg, po; parameters: dose 30 mg/kg, route oral; conditions: in vivo
[3] = Cmax in diabetic tuberculosis patient at 30 mg/kg, po by HPLC analysis; parameters: dose 30 mg/kg, route oral; conditions: human, in vivo
[4] = Cmax in tuberculosis patient at 30 mg/kg, po by HPLC analysis; parameters: dose 30 mg/kg, route oral; conditions: human, in vivo
[5] = Tmax in tuberculosis patient at 30 mg/kg, po by HPLC analysis; parameters: dose 30 mg/kg, route oral; conditions: human, in vivo
[6] = AUC (0 to 24 hrs) in diabetic tuberculosis patient at 30 mg/kg, po by HPLC analysis; parameters: time < 24 hr, dose 30 mg/kg, route oral; conditions: human, plasma
Homo sapiens [7] = assay: Ratio of Cmax in diabetic tuberculosis patient to Cmax in tuberculosis patient at 30 mg/kg, po; parameters: dose 30 mg/kg, route oral; conditions: in vivo
[8] = Tmax in diabetic tuberculosis patient at 30 mg/kg, po by HPLC analysis; parameters: dose 30 mg/kg, route oral; conditions: human, in vivo
[9] = Bioavailability in diabetic tuberculosis patient at 10 mg/kg, po and 10 mg/kg, iv by HPLC analysis; conditions: human, in vivo
[10] = Oral bioavailability in tuberculosis patient at 10 mg/kg by HPLC analysis; conditions: human, in vivo
[11] = Tmax in diabetic tuberculosis patient at 10 mg/kg, po and 10 mg/kg, iv by HPLC analysis; conditions: human, in vivo
[12] = Cmax in tuberculosis patient at 10 mg/kg, po by HPLC analysis; parameters: dose 10 mg/kg, route oral; conditions: human, in vivo
[13] = Apparent volume of distribution in diabetic tuberculosis patient at 10 mg/kg, po and 10 mg/kg, iv by HPLC analysis; conditions: human, in vivo, read-out: Vc/F
[14] = Apparent oral clearance in tuberculosis patient at 10 mg/kg, po by HPLC analysis; parameters: dose 10 mg/kg, route oral; conditions: human, in vivo
[15] = AUC (0 to 24 hrs) in diabetic tuberculosis patient at 10 mg/kg, po and 10 mg/kg, iv by HPLC analysis; conditions: human, plasma
[16] = Apparent volume of distribution in tuberculosis patient at 10 mg/kg, po by HPLC analysis; parameters: dose 10 mg/kg, route oral; conditions: human, in vivo, read-out: Vc/F
[17] = Tmax in tuberculosis patient at 10 mg/kg, po by HPLC analysis; parameters: dose 10 mg/kg, route oral; conditions: human, in vivo
[18] = AUC (0 to 24 hrs) in tuberculosis patient at 10 mg/kg, po by HPLC analysis; parameters: time < 24 hr, dose 10 mg/kg, route oral; conditions: human, plasma
Homo sapiens [19] = species on record: Homo sapiens; assay: Ratio of half life in diabetic tuberculosis patient to half life in tuberculosis patient; conditions: in vivo
[20] = Half life in diabetic tuberculosis patient at 10 mg/kg, po and 10 mg/kg, iv by HPLC analysis; conditions: human, in vivo
Homo sapiens [21] = species on record: Homo sapiens; assay: Ratio of AUC (0 to 24 hrs) for diabetic tuberculosis patient to AUC (0 to 24 hrs) for tuberculosis patient; conditions: in vivo
[22] = Cmax in diabetic tuberculosis patient at 10 mg/kg, po and 10 mg/kg, iv by HPLC analysis; conditions: human, in vivo
[23] = Half life in tuberculosis patient at 10 mg/kg, po by HPLC analysis; parameters: dose 10 mg/kg, route oral; conditions: human, in vivo
Homo sapiens [24] = species on record: Homo sapiens; assay: Ratio of Cmax in diabetic tuberculosis patient to Cmax in tuberculosis patient; conditions: in vivo
[25] = AUC (0 to 24 hrs) in tuberculosis patient at 15 mg/kg, po by HPLC analysis; parameters: time < 24 hr, dose 15 mg/kg, route oral; conditions: human, plasma
[26] = Tmax in diabetic tuberculosis patient at 15 mg/kg, po by HPLC analysis; parameters: dose 15 mg/kg, route oral; conditions: human, in vivo
[27] = AUC (0 to 24 hrs) in diabetic tuberculosis patient at 15 mg/kg, po by HPLC analysis; parameters: time < 24 hr, dose 15 mg/kg, route oral; conditions: human, plasma
Homo sapiens [28] = assay: Ratio of Cmax in diabetic tuberculosis patient to Cmax in tuberculosis patient at 15 mg/kg, po; parameters: dose 15 mg/kg, route oral; conditions: in vivo
[29] = Cmax in tuberculosis patient at 15 mg/kg, po by HPLC analysis; parameters: dose 15 mg/kg, route oral; conditions: human, in vivo
[30] = Tmax in tuberculosis patient at 15 mg/kg, po by HPLC analysis; parameters: dose 15 mg/kg, route oral; conditions: human, in vivo
[31] = Cmax in diabetic tuberculosis patient at 15 mg/kg, po by HPLC analysis; parameters: dose 15 mg/kg, route oral; conditions: human, in vivo
Homo sapiens [32] = assay: Ratio of sAUC (0 to 24 hrs) for diabetic tuberculosis patient to sAUC (0 to 24 hrs) for tuberculosis patient at 15 mg/kg, po; parameters: dose 15 mg/kg, route oral; conditions: in vivo

NC(=O)c1cnccn1 [PYRAZINAMIDE]
AUC(0-t) at 24 h [1]: 468000 ng·h/mL | Ratio (Homo sapiens [2]): 0.88 | Cmax [3]: 45500 ng/mL | Cmax [4]: 47000 ng/mL | Tmax [5]: 1.5 h | AUC(0-t) at 24 h [6]: 409000 ng·h/mL | Ratio (Homo sapiens [7]): 0.96 | Tmax [8]: 1 h

CO[C@H]1/C=C/O[C@@]2(C)Oc3c(C)c(O)c4c(O)c(c(/C=N/N5CCN(C)CC5)c(O)c4c3C2=O)NC(=O)/C(C)=C\C=C\[C@H](C)[C@H](O)[C@@H](C)[C@@H](O)[C@@H](C)[C@H](OC(C)=O)[C@@H]1C [RIFAMPIN]
bioavailability [9]: 69% | bioavailability [10]: 74% | Tmax [11]: 2 h | Cmax [12]: 9600 ng/mL | Vd/F [13]: 27.4 L | CL/F [14]: 148 mL/min | AUC(0-t) [15]: 49000 ng·h/mL | Vd/F [16]: 27.6 L | Tmax [17]: 2.5 h | AUC(0-t) at 24 h [18]: 50600 ng·h/mL

CO[C@H]1/C=C/O[C@@]2(C)Oc3c(C)c(O)c4c(O)c(c(/C=N/N5CCN(C)CC5)c(O)c4c3C2=O)NC(=O)/C(C)=C\C=C\[C@H](C)[C@H](O)[C@@H](C)[C@@H](O)[C@@H](C)[C@H](O)[C@@H]1C
Ratio (Homo sapiens [19]): 0.94 | half-life [20]: 2.3 h | Tmax [11]: 3 h | Ratio (Homo sapiens [21]): 0.69 | Cmax [12]: 1400 ng/mL | Cmax [22]: 1100 ng/mL | AUC(0-t) [15]: 5700 ng·h/mL | half-life [23]: 2.4 h | Tmax [17]: 4 h | AUC(0-t) at 24 h [18]: 8300 ng·h/mL | Ratio (Homo sapiens [24]): 0.78

CC[C@@H](CO)NCCN[C@@H](CC)CO [ETHAMBUTOL]
AUC(0-t) at 24 h [25]: 13500 ng·h/mL | Tmax [26]: 3 h | AUC(0-t) at 24 h [27]: 13800 ng·h/mL | Ratio (Homo sapiens [28]): 1.12 | Cmax [29]: 1950 ng/mL | Tmax [30]: 3 h | Cmax [31]: 2200 ng/mL | Ratio (Homo sapiens [32]): 1.02
